Data taken from ChEMBL document CHEMBL1201862, “PubChem BioAssay data set” (2004).
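Dose response: 5 concentrations. Exposure: 48 h. Format: 96-well plates. Endpoint: linear interpolation; highest concentration if not reached. GI50 = concentration required for 50% inhibition of growth.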 The source made the active and inactive calls. No stated cut-off is given here; in the data, active = GI50 up to about 1.1 µM and inactive = higher.

Legend:
Assay in all cases: DTP human tumour cell line panel, 48 h
SF-539 = system: SF-539
SW-620 = system: SW-620
SK-MEL-2 = system: SK-MEL-2
DLD-1 = system: DLD-1
A549 = system: A549
ACHN = system: ACHN
786-0 = system: 786-0
MOLT-4 = system: MOLT-4
OVCAR-8 = system: OVCAR-8
CAKI-1 = system: CAKI-1
HOP-92 = system: HOP-92
SK-MEL-28 = system: SK-MEL-28
IGROV-1 = system: IGROV-1
UO-31 = system: UO-31
COLO 205 = system: COLO 205
HCC 2998 = system: HCC 2998
SK-OV-3 = system: SK-OV-3
U-251 = system: U-251
CCRF-CEM = system: CCRF-CEM
OVCAR-4 = system: OVCAR-4
EKVX = system: EKVX
SF-268 = system: SF-268
NCI-H460 = system: NCI-H460
XF498 = system: XF498
LOX IMVI = system: LOX IMVI
K562 = system: K562
A498 = system: A498
SF-295 = system: SF-295
Malme-3M = system: Malme-3M
M19-MEL = system: M19-MEL
RPMI-8226 = system: RPMI-8226
HCT-116 = system: HCT-116
NCI-H226 = system: NCI-H226
SNB-75 = system: SNB-75
LXFL 529 = system: LXFL 529
M14 = system: M14
KM12 = system: KM12
SK-MEL-5 = system: SK-MEL-5
SNB-78 = system: SNB-78
HL-60 = system: HL-60
SR = system: SR
UACC-62 = system: UACC-62
NCI-H522 = system: NCI-H522
DMS-114 = system: DMS-114
OVCAR-5 = system: OVCAR-5
UACC-257 = system: UACC-257
HT-29 = system: HT-29
TK-10 = system: TK-10
RXF 631 = system: RXF 631
HOP-18 = system: HOP-18
NCI-H23 = system: NCI-H23
HCT-15 = system: HCT-15
SN12C = system: SN12C
RXF 393 = system: RXF 393
OVCAR-3 = system: OVCAR-3
DMS-273 = system: DMS-273
HOP-62 = system: HOP-62
SNB-19 = system: SNB-19
KM-20L2 = system: KM-20L2

Measured: GI50

O=C(/C=C/c1ccc(-c2ccccc2)cc1)c1ccccc1
17.7 µM: HCT-15
inactive: SF-539 17.9 µM | SW-620 20.7 µM | SK-MEL-2 12.7 µM | DLD-1 26.3 µM | A549 19.5 µM | ACHN 31.6 µM | 786-0 22.8 µM | MOLT-4 46.9 µM | OVCAR-8 17.3 µM | CAKI-1 38.7 µM | HOP-92 16.6 µM | SK-MEL-28 25.8 µM | IGROV-1 26.7 µM | UO-31 35 µM | COLO 205 22.3 µM | HCC 2998 18.2 µM | SK-OV-3 23.7 µM | U-251 22.9 µM | CCRF-CEM 90.4 µM | OVCAR-4 29.7 µM | EKVX 23.3 µM | SF-268 24.8 µM | NCI-H460 20.6 µM | XF498 25.2 µM | LOX IMVI 15.7 µM | K562 27.7 µM | A498 20 µM | SF-295 30.2 µM | Malme-3M 41.9 µM | M19-MEL 24 µM | RPMI-8226 19.5 µM | HCT-116 14.5 µM | NCI-H226 22.1 µM | SNB-75 31 µM | LXFL 529 17.6 µM | M14 31.1 µM | KM12 17.9 µM | SK-MEL-5 19.7 µM | SNB-78 29 µM | HL-60 39.6 µM | SR 12.7 µM | UACC-62 20.8 µM | NCI-H522 17.3 µM | DMS-114 14.6 µM | OVCAR-5 17.3 µM | UACC-257 32.4 µM | HT-29 21.9 µM | TK-10 22.1 µM | RXF 631 25.2 µM | HOP-18 > 100 µM | NCI-H23 20.1 µM | SN12C 30.4 µM

CCOC(=O)CCC(NC(=O)c1ccc(NC(OC)c2nc3cc(C(F)(F)F)ccc3nc2-c2ccccc2)cc1)C(=O)OCC (configuration not stated)
14.3 µM: HCT-15
inactive: SF-539 13.2 µM | SW-620 7.62 µM | SK-MEL-2 17.3 µM | RXF 393 13.9 µM | OVCAR-3 18.5 µM | DLD-1 9.4 µM | A549 18.5 µM | ACHN 16.1 µM | 786-0 12.7 µM | MOLT-4 2.67 µM | OVCAR-8 10.3 µM | CAKI-1 17.1 µM | HOP-92 16 µM | SK-MEL-28 17.3 µM | DMS-273 7.36 µM | IGROV-1 15.7 µM | UO-31 13.6 µM | COLO 205 16.5 µM | HCC 2998 15.8 µM | SK-OV-3 18.1 µM | U-251 15.6 µM | CCRF-CEM 2.51 µM | OVCAR-4 21.5 µM | EKVX 18 µM | SF-268 16.6 µM | NCI-H460 12.7 µM | LOX IMVI 10.4 µM | K562 2.89 µM | A498 17.3 µM | SF-295 16.2 µM | HOP-62 17 µM | Malme-3M 17 µM | M19-MEL 14.7 µM | RPMI-8226 6.41 µM | HCT-116 2.92 µM | NCI-H226 18.6 µM | SNB-75 19.9 µM | LXFL 529 7.6 µM | M14 15.4 µM | KM12 6.24 µM | SK-MEL-5 16.3 µM | SNB-78 19.1 µM | SNB-19 14.4 µM | HL-60 2.21 µM | KM-20L2 13.6 µM | UACC-62 16.9 µM | NCI-H522 12.3 µM | DMS-114 12.7 µM | OVCAR-5 17.6 µM | UACC-257 16.3 µM | HT-29 7.93 µM | TK-10 21 µM | RXF 631 13.7 µM | HOP-18 18.5 µM | NCI-H23 16 µM | SN12C 14.5 µM

C=CCN1C(=O)C/C(=C2/CCC(=O)N2CC=C)C1=O
> 100 µM: HCT-15
inactive: SF-539 > 100 µM | SW-620 > 100 µM | SK-MEL-2 > 100 µM | RXF 393 > 100 µM | OVCAR-3 > 100 µM | DLD-1 > 100 µM | A549 > 100 µM | ACHN > 100 µM | 786-0 > 100 µM | MOLT-4 > 100 µM | OVCAR-8 > 100 µM | CAKI-1 > 100 µM | HOP-92 > 100 µM | SK-MEL-28 > 100 µM | DMS-273 > 100 µM | IGROV-1 > 100 µM | UO-31 > 100 µM | COLO 205 > 100 µM | HCC 2998 > 100 µM | SK-OV-3 > 100 µM | U-251 > 100 µM | CCRF-CEM > 100 µM | OVCAR-4 > 100 µM | EKVX > 100 µM | SF-268 > 100 µM | NCI-H460 > 100 µM | LOX IMVI > 100 µM | K562 > 100 µM | A498 > 100 µM | SF-295 > 100 µM | HOP-62 88.7 µM | Malme-3M > 100 µM | M19-MEL > 100 µM | HCT-116 > 100 µM | NCI-H226 > 100 µM | SNB-75 > 100 µM | LXFL 529 > 100 µM | M14 > 100 µM | KM12 > 100 µM | SK-MEL-5 > 100 µM | SNB-78 > 100 µM | SNB-19 > 100 µM | HL-60 > 100 µM | SR > 100 µM | KM-20L2 > 100 µM | UACC-62 > 100 µM | NCI-H522 > 100 µM | DMS-114 > 100 µM | OVCAR-5 > 100 µM | UACC-257 > 100 µM | HT-29 > 100 µM | TK-10 > 100 µM | RXF 631 > 100 µM | HOP-18 > 100 µM | NCI-H23 > 100 µM | SN12C > 100 µM
